Key:
Assay type in all cases: cell-based
[1] = system: LFA-1 binding to ICAM-1 triggered through CXCR4; assay: SDF-1α-induced cell adhesion assay; details: Jurkat cells treated with 20 mM
Experimental: Cell adhesion assays were carried out essentially as previously described (Liao et al., supra, 2000). The wells of 96 well plates were coated with recombinant ICAM-Ig and blocked as described. Jurkat cells were labeled with horseradish peroxidase (HRP) and treated with either 20 mM 2-OH-βCD or medium alone as described above. The cells were then washed and resuspended in cRPMI at a density of 2×10^6/ml. One hundred Tl of cells were added to the wells along with cRPMI alone or medium containing 10 ng/ml of SDF-1α. The wells were incubated at 37° C. for various times before washing to remove unbound cells. Bound cells were lysed and HRP measured as described previously. A standard curve was generated by from known numbers of labeled cells lysed and quantitated by measuring HRP.
Loss of CXCR function in regulating LFA-1 could also explain the lower binding of HIV-1 to βCD-treated cells observed previously (Liao et al., supra, 2000; Orentas and Hildreth, supra, 1993). […] The ability of βCD treatment of cells to affect control of LFA-1 function by CXCR4 also was examined. Jurkat cells were treated with 2-OH-βCD or medium alone, then were added to the wells of culture plates coated with soluble recombinant ICAM-Ig. SDF-1, a CXCR4-specific chemokine that triggers LFA-1 function, was added to trigger binding of LFA-1 to ICAM-1. […]

HIV-infected H9 cells = assay: Syncytium assay with HIV-1 infected cells; details: for Syncytia (/HPF): with HIV-infected H9 cells
Experimental: Syncytium assays were carried out essentially as previously described (Hildreth and Orentas, supra, 1989). Briefly, cell lines or PHA blasts were treated with 20 mM 2-OH-βCD in RPMI 1640 or medium alone for 1 hr at 37° C. before washing twice with PBS. The treated cells were then mixed with HIV-1 infected cells, each at density of 2×10^6/ml, in cRPMI and incubated at 37° C. Syncytia were scored and photographed 3 to 6 hr after mixing. For free-virus mediated syncytium assays (“fusion from without”), HIV-1RF from infected PM1 culture supernatants were clarified by 0.45 Tm filtration (p24 concentration greater than 500 ng/ml). 2-OH-βCD-treated and non-treated cell lines were added to the virus preparations and incubated at 37° C. for 3 hr before counting syncytia.
CD4+SupTl T cells formed numerous large syncytia within 3 hr after the addition of HIV-1MN-infected H9 cells. […] No syncytia were apparent in this culture for more than 15 hr, which can reflect the recovery time for cholesterol in the βCD treated T cells. 2-OH-βCD was washed out after the 1 hr treatment and was not present during the co-cultivation step. As such, the effects are not a result of a steric blockade by 2-OH-βCD, which can bind to cells.
The effect of βCD treatment on HIV-induced fusion of several other cell lines also was examined. Four CD4+, CXCR4+cell lines, SupT1, H9, PM1, and MT2, were treated with 2-OH-βCD and tested for syncytium formation with HIV-1-infected cells.

HIV-1RF = assay: Free virus binding assay (transfer of class II MHC to Jurkat cells)
Experimental: Virus binding was measured through host cell antigen transfer as described (Liao et al., supra, 2000). Briefly, Jurkat cells (1×10^6) were washed with serum free RPMI-1640 medium (iRPMI) before incubation in 20 mM 2-OH-βCD in iRPMI or iRPMI alone for 1 hr at 37° C. Cells were then washed twice with iRPMI before adding 100 Tl of clarified HIV-1 supernatant (>10 ng/ml of p24 from PM1 cells) for 1 hr on ice. Excess virus was removed by washing twice with iRPMI. MAbs were then added at 20 ug/ml in 5% NGS/PBS and allowed to incubate for 1 h on ice before washing with iRPMI. FITC-GAM (10 ug/ml) was then added for 45 min on ice before washing with iRPMI. Cells were then fixed with 2% paraformaldehyde followed by analysis on an EPICS Profile II flow cytometer.
The possibility that βCD treatment affected virus binding or interactions between gp120 and CD4 or CRs was examined. In order to measure virus binding to cells, a flow cytometry assay was used that measures the transfer of host cell class II MHC proteins to class II MHC-negative cells by HIV virions, which incorporate large numbers of these proteins into their lipid envelopes. […] Class II MHC-negative Jurkat cells were used as target cells in the HIV binding assay. As a positive control for flow cytometry analysis, class I MHC molecules were probed on the Jurkat cells, which were stained equally well with MAb against this protein before and after 2-OH-βCD treatment (Table 3). When HIV-1RF from class II MHC-positive PM1 cells was added to untreated Jurkat cells, class II MHC MAb mean channel fluorescence increased from 1.0 to 7.8 relative fluorescence units, while the percentage of positive cells increased from 3.0% to 55.4% (Table 3). 2-OH-βCD treatment of the cells reduced virus binding by 70%, as determined by mean channel fluorescence of the anti-class II MHC mAb.
HIV binding to Jurkat cells (control and 2-OH-βCD-treated) was measured by transfer of class II MHC molecules. MAbs used were MHM.5 (anti-class I MHC), positive control; MHM.33 (anti-class II MHC). “MCF” indicates mean channel fluorescence. “% Pos” indicates percent positive cells. “ND” indicates not determined.

2-hydroxypropyl-β-cyclodextrin [2-OH-βCD]
Binding of Jurkat cells to ICAM-Ig after exposure to SDF-1 [1]: no binding to ICAM-Ig | Syncytium formation of SupT1 cells with HIV-1MN-infected H9 cells (HIV-infected H9 cells; 1 hr treatment, washed out before co-cultivation): completely inhibited | Syncytia (/HPF) (HIV-infected H9 cells; H9 cells treated with 20 mM): 0 /HPF | Syncytia (/HPF) (HIV-infected H9 cells; MT2 cells treated with 20 mM): 0 /HPF | Syncytia (/HPF) (HIV-infected H9 cells; PM1 cells treated with 20 mM): 0 /HPF | Syncytium formation with HIV-1-infected cells (HIV-infected H9 cells; SupT1, H9, PM1 and MT2 cell lines, in each case): completely blocked | Syncytia (/HPF) (HIV-infected H9 cells; SupT1 cells treated with 20 mM): 0 /HPF | Time without apparent syncytia (HIV-infected H9 cells; treated SupT1 cells with HIV-1MN-infected H9 cells): more than 15 hr | Reduction of virus binding, by mean channel fluorescence of the anti-class II MHC mAb (HIV-1RF; Jurkat cells treated with 20 mM): 70% | MHM5 (anti-class I MHC) % Pos (HIV-1RF; treated Jurkat cells, HIVRF): 100% | MHM5 (anti-class I MHC) MCF (HIV-1RF; treated Jurkat cells, HIVRF): 167.8 MCF | MHM33 (anti-class II MHC) % Pos (HIV-1RF; treated Jurkat cells, HIVRF): 26.0% | MHM33 (anti-class II MHC) MCF (HIV-1RF; treated Jurkat cells, HIVRF): 2.4 MCF | IgG1 % Pos (HIV-1RF; treated Jurkat cells, no virus): 3.4% | IgG1 MCF (HIV-1RF; treated Jurkat cells, no virus): 0.7 MCF | MHM5 (anti-class I MHC) % Pos (HIV-1RF; treated Jurkat cells, no virus): 100% | MHM5 (anti-class I MHC) MCF (HIV-1RF; treated Jurkat cells, no virus): 165 MCF | MHM33 (anti-class II MHC) % Pos (HIV-1RF; treated Jurkat cells, no virus): 3.3% | MHM33 (anti-class II MHC) MCF (HIV-1RF; treated Jurkat cells, no virus): 0.7 MCF
